Reference: patent publication US11833116B2 (TCI CO., LTD., priority 2020, dated 2023)

Experiments:
CCT5 gene = assay: Antiaging-related gene expression in PBMC cells (qRT-PCR): CCT5; format: cell-based, human; settings: 0.25 vol %, 24 hours, control group = 1.00
Source text: (§1) Herein, the tested antiaging-related genes are antiaging genes including CCT5 gene (Gene ID: 22948), CCT6A gene (Gene ID: 908), CCT7 gene (Gene ID: 10574), CCT8 gene (Gene ID: 10694), PARP2 gene (Gene ID: 10038), Parkin gene (Gene ID: 5071), Atg1 gene (Gene ID: 8408), Arg8 gene (Gene ID: 11345), FOX) gene (Gene ID: 2308), SIRT1 gene (Gene ID: 23411), […] gene (Gene ID: 55191), and MRPS3 gene (Gene ID: 64969). A medium used was an X-VIVOTM 15 serum-free hematopoietic cell medium (manufacturer: Lonza; product No.: 04-[…]) supplemented with 10 vol % of fetal bovine serum (FBS; brand: Gibco) and 1 vol % of penicillin/streptomycin (brand: Gibco), hereinafter referred to as a cell medium. […] Then, by using an ABI StepOnePlusTM Real-Time PCR system (Thermo Fisher Scientific Company, USA), KAPA SYBR FAST (purchased from Sigma Company, USA, No. 38220000000) and primers of Table 1 (SEQ ID NO: 1 to SEQ ID NO: 24), a quantitative real-time reverse transcription polymerase chain reaction was performed on the cDNA of each group to observe the expression levels of antiaging-related genes in PBMC cells. […] Herein, the quantitative real-time reverse transcription polymerase chain reaction of the cDNA can indirectly quantify an mRNA expression level of a gene, and then infer the expression level of protein encoded by the gene. […]

CCT7 gene = assay: Antiaging-related gene expression in PBMC cells (qRT-PCR): CCT7; format: cell-based, human; settings: 0.25 vol %, 24 hours, control group = 1.00
Source text: as §1

NADSYN gene = assay: Antiaging-related gene expression in PBMC cells (qRT-PCR): NADSYN; format: cell-based, human; settings: 0.25 vol %, 24 hours, control group = 1.00
Source text: as §1

FOXO gene = assay: Antiaging-related gene expression in PBMC cells (qRT-PCR): FOXO; format: cell-based, human; settings: 0.25 vol %, 24 hours, control group = 1.00
Source text: as §1

Atg1 gene = assay: Antiaging-related gene expression in PBMC cells (qRT-PCR): Atg1; format: cell-based, human; settings: 0.25 vol %, 24 hours, control group = 1.00
Source text: as §1

Parkin gene = assay: Antiaging-related gene expression in PBMC cells (qRT-PCR): Parkin; format: cell-based, human; settings: 0.25 vol %, 24 hours, control group = 1.00
Source text: Herein, the tested antiaging-related genes are antiaging genes including CCT5 gene (Gene ID: 22948), CCT6A gene (Gene ID: 908), CCT7 gene (Gene ID: 10574), CCT8 gene (Gene ID: 10694), PARP2 gene (Gene ID: 10038), Parkin gene (Gene ID: 5071), Atg1 gene (Gene ID: 8408), Arg8 gene (Gene ID: 11345), FOX) gene (Gene ID: 2308), SIRT1 gene (Gene ID: 23411), NADSYN gene (Gene ID: 55191), and MRPS3 gene (Gene ID: 64969).
A medium used was an X-VIVO™ 15 serum-free hematopoietic cell medium (manufacturer: Lonza; product No.: 04-418Q) supplemented with 10 vol % of fetal bovine serum (FBS; brand: Gibco) and 1 vol % of penicillin/streptomycin (brand: Gibco), hereinafter referred to as a cell medium. […]
PBMC cells were collected from each group, and RNA of each group was extracted with an RNA extraction reagent kit (purchased from Geneaid, Taiwan, China, Lot No. FC24015-G). […] Then, by using an ABI StepOnePlus™ Real-Time PCR system (Thermo Fisher Scientific Company, USA), KAPA SYBR FAST (purchased from Sigma Company, USA, No. 38220000000) and primers of Table 1 (SEQ ID NO: 1 to SEQ ID NO: 24), a quantitative real-time reverse transcription polymerase chain reaction was performed on the cDNA of each group to observe the expression levels of antiaging-related genes in PBMC cells. […]

Atg8 gene = assay: Antiaging-related gene expression in PBMC cells (qRT-PCR): Atg8; format: cell-based, human; settings: 0.25 vol %, 24 hours, control group = 1.00
Source text: as §1

SIRT1 gene = assay: Antiaging-related gene expression in PBMC cells (qRT-PCR): SIRT1; format: cell-based, human; settings: 0.25 vol %, 24 hours, control group = 1.00
Source text: as §1

MRPS5 gene = assay: Antiaging-related gene expression in PBMC cells (qRT-PCR): MRPS5; format: cell-based, human; settings: 0.25 vol %, 24 hours, control group = 1.00
Source text: as §1

CCT8 gene = assay: Antiaging-related gene expression in PBMC cells (qRT-PCR): CCT8; format: cell-based, human; settings: 0.25 vol %, 24 hours, control group = 1.00
Source text: as §1

[1] = tested on: mouse brain neuroblastoma cells (Neuro2a); assay: Inhibition of ROS generation (hydrogen peroxide treatment), DCFH-DA flow cytometry; format: cell-based
Protocol: A medium used was a DMEM medium (Dulbecco's Modified Eagle Medium; brand: Gibco) supplemented with 10 vol % of fetal bovine serum (FBS; brand: Gibco) and 1 vol % of penicillin/streptomycin (brand: Gibco), hereinafter referred to as a cell medium. A DCFH-DA solution used was a reaction solution prepared by dissolving 2,7-dichloro-dihydro-fluorescein diacetate (DCFH-DA, product code SI-D6883, purchased from Sigma) in dimethyl sulfoxide (DMSO, purchased from Sigma, product code SI-D6883-50MG). […]
Flow cytometry (manufacturer: Beckman; Catalog No. 660519) was used to detect a fluorescence signal of DCFH-DA in the cell solutions to be assayed in each group. The excitation wavelength of fluorescence detection used was 450 nm to 490 nm, and the emission wavelength was 510 nm to 550 nm. Since DCFH-DA will first be hydrolyzed to DCFH (dichloro-dihydro-fluorescein) after entering the Neuro2a cells, and then oxidized by reactive oxygen species (ROS) into DCF (dichloro-fluorescein) that emits green fluorescence, the fluorescence intensity of the Neuro2a cells treated with the DCFH-DA can reflect the content of reactive oxygen species (ROS) in the Neuro2a cells, and from this, the ratio of the number of cells with highly expressed reactive oxygen species (ROS) in the Neuro2a cells to the number of original cells can be known.

PARP2 gene = assay: Antiaging-related gene expression in PBMC cells (qRT-PCR): PARP2; format: cell-based, human; settings: 0.25 vol %, 24 hours, control group = 1.00
Source text: as §1

[2] = tested on: mouse brain neuroblastoma cells (Neuro2a); assay: Mitochondrial activity (JC-1 mitochondrial membrane potential, flow cytometry); format: cell-based; settings: 0.25 vol %, 24 hours, control group = 100%
Source text: A medium used was a DMEM medium (Dulbecco's Modified Eagle Medium; brand: Gibco) supplemented with 10 vol % of fetal bovine serum (FBS; brand: Gibco) and 1 vol % of penicillin/streptomycin (brand: Gibco), hereinafter referred to as a cell medium. A mitochondrial activity test method used was to use a mitochondrial membrane potential detection kit (BD™ MitoScreen (JC-1) kit, model 551302) to measure the mitochondrial membrane potential and perform mitochondrial activity analysis. The mitochondrial membrane potential detection kit included a JC-1 stain (freeze-dried) and a 10×assay buffer. Before use, the 10×assay buffer was diluted 10 times with 1×PBS to form a 1×assay buffer. 130 μL of DMSO was added to the JC-1 stain (freeze-dried) to form a JC-1 stock solution. Then, the JC-1 stock solution was diluted with the 1×assay buffer to form a JC-1 working solution (JC-1 mitochondrial specific stain). The dilution ratio of the JC-1 stock solution to the 1×assay buffer was 1:100.
First, 1×10^5 mouse neuroblastoma cells (ATCC CCL-131; hereinafter referred to as Neuro2a cells) were added into a six-well cell culture plate containing 2 mL of the above cell medium per well, and cultured at 37° C. for 24 hours. […]

CCT6A gene = assay: Antiaging-related gene expression in PBMC cells (qRT-PCR): CCT6A; format: cell-based, human; settings: 0.25 vol %, 24 hours, control group = 1.00
Source text: as §1

Structure (SMILES): NC(=O)c1ccc[n+]([C@@H]2O[C@H](COP(=O)([O-])O)[C@@H](O)[C@H]2O)c1 [nicotinamide mononucleotide]
- relative expression of the CCT5 gene (CCT5 gene): 1.55
- relative expression of the CCT7 gene (CCT7 gene): 1.0672
- relative expression of the NADSYN gene (NADSYN gene): 5.84
- relative expression of the FOXO gene (FOXO gene): 0.79
- relative expression of the Atg1 gene (Atg1 gene): 1.25
- relative expression of the Parkin gene (Parkin gene): 1.61
- relative expression of the Atg8 gene (Atg8 gene): 1.02
- relative expression of the SIRT1 gene (SIRT1 gene): 4.30
- relative expression of the MRPS5 gene (MRPS5 gene): 0.80
- relative expression of the CCT8 gene (CCT8 gene): 1.72
- relative ROS production ([1]; 24 h with 0.25 vol % yeast powder or 10 μL of 200 mM synthetic NMN, then hydrogen peroxide 1 hour, blank group = 100%, H2O2 control group 487.6%): 452.5%
- decrease in relative ROS production versus H2O2 control (percentage points, blank = 100%) ([1]; hydrogen peroxide, versus control group 487.6%): 35.1%
- relative expression of the PARP2 gene (PARP2 gene): 0.67
- relative JC-1 accumulation [2]: 42.93%
- relative expression of the CCT6A gene (CCT6A gene): 1.62
